Key:
[1] = tested on: macrophage-lipid complex on the arterial endothelium; experiment: Fatty streak analysis: macrophage-lipid complex on main artery of cholesterol-fed rabbits (Example 6); assay type: in vivo, New Zealand White rabbit; settings: for inhibition of accumulation of macrophage-lipid complex on the arterial endothelium (conclusion): 0.1% in 1% cholesterol diet; for area of macrophage-lipid complex accumulated on the arterial endothelium, compared to control group / M-L (macrophage-lipid) complex area: 1% cholesterol diet, 6 weeks, 0.1% naringin or naringenin; for M-L (macrophage-lipid) complex area: proportion of total arterial area, control 35
Source text: RC4 diet comprises 7.6% moisture, 22.8% crude protein, 2.8% crude fat, 8.8% crude ash, 14.4% crude cellulose and 43.6% soluble nitrogen-free substances. The rabbits were bred for 6 weeks while being allowed free access to the diets and water. The rabbits bred in (Step 1) were sacrificed and their chest were incised. The main artery was cut out therefrom in a length of about 5 cm downward from the site 1 cm above the aortic valve and the fat surrounding the main artery was removed. The main artery was incised in the middle along the longitudinal axis and pinned to a dish. The moist artery was photographed and, then, staining of fatty streak was carried out in accordance with the method of […]., et al. (J. Lab. Clin. […] A part of the incised main artery was washed three times by 2 min. with anhydrous propylene glycol and stained for 30 min. with a saturated solution of Oil Red O (ORO, Sigma Co.) dissolved in propylene glycol. Thereafter, the artery was washed twice by 3 min. with 85% propylene glycol to remove remaining staining solution and, then washed with physical saline. The artery was photographed and the photograph was traced. The area of stained region (fatty streak region) was determined with an image analyzer (LEICA, Q-600, Germany) and its proportion (%) to the total arterial area was calculated. On the other hand, the other part of the main artery was stained in accordance with hematoxylin-eosin (H&E) and Masson's trichrome staining methods and observed under a microscope to confirm whether the macrophage-lipid complexes were accumulated in the intima, internus, elastic lamina and media.

[2] = Serum GOT and GPT levels in rats (Example 7); assay type: in vivo, Sprague-Dawley rat; settings: 1% cholesterol diet plus 0.02% naringin, six weeks
Source text: 20 four-week-old Sprague-Dawley rats (Taihan laboratory animal center, Korea) each weighing about 90 to 110 g were evenly divided into two dietary groups by a randomized block design. The rats of the two groups were fed with two different high-cholesterol diets, i.e., AIN-76 laboratory animal diet (ICN Biochemicals, Cleveland, Ohio, U.S.A.) containing 1% cholesterol (Control group), and 1% cholesterol plus 0.02% naringin, respectively.
Blood samples were taken from the rats of the two dietary groups and serum GOT (glutamate-oxaloacetate transaminase) and GPT (glutamate-pyruvate transaminase) levels were determined in accordance with the method of Reitman and Frankel (Reitman, S. and J. S. Frankel, Am. J. Clin. Pathol., 28, 56(1956)). GOT and GPT are synthesized in the liver and heart, and released into blood stream upon the damage of these organs. Accordingly, GOT and GPT are representative markers of the liver-function and high serum GOT and GPT levels mean severe damage of the liver.

hepatic cells = settings: rabbits, six weeks
Protocol: The same procedure as in (Step 1) was repeated except that 30 three-month old New Zealand White rabbits (Yeonam Horticulture and Animal Husbandry College, Korea) each weighing about 2.5 to 2.6 kg were used in place of the rats, and the rabbits were fed for six weeks with three different diets, i.e., RC4 diet containing 1% cholesterol (Control group); 1% cholesterol plus 1 mg/kg Lovastatin® (Comparative group); and 1% cholesterol plus 0.1% naringin, respectively.
Thereafter, the livers were separated from the rabbits and the histopathological observations were carried out as follows.
The rabbits were anesthetized with an intramuscular injection of ketamine (75 mg/kg) and subjected to an abdominal incision. […] The fixed liver was washed sufficiently with water, dehydrated stepwise with 70%, 80%, 90% and 100% ethanol and, then, embedded in paraffin. The embedded liver was sectioned in 4 μm thickness with a microtome and stained with hematoxylin and eosin. The stained liver specimen was made transparent with xylene, mounted with permount, and then observed under a microscope to confirm the presence of lesions.

[3] = Serum GOT, GPT and γGTP in a person (Example 7, Step 4); assay type: in vivo; settings: human, oral, 10 mg/kg daily
Protocol: Naringin was orally administered to a person at a daily dose of 10 mg/kg for 68 days and serum GOT, GPT and γGTP levels were determined just before the administration (day 0), and 45 and 68 days after the administration (day 45 and day 68), respectively. Consequently, serum GOT levels at day 45 and day 68 decreased by 17%, respectively, in comparison to that of day 0. Serum GPT levels at day 45 and day 68 decreased by 15% and 19%, respectively, in comparison to that of day 0. Further, serum γGTP levels at day 45 and day 68 decreased by 25% and 51%, respectively, in comparison to that of day 0.

[4] = Serum γGTP in a habitual drinker (Example 7, Step 4); assay type: in vivo; settings: human, oral, 6 mg/kg daily, 30 days; day 0: 129 IU/l
Protocol: On the other hand, naringin was orally administered to a person, who had drunk alcoholic beverages habitually in an amount of 100 cc per day, at a daily dose of 6 mg/kg for 30 days and serum γGTP level was determined just before the administration (day 0) and 30 days after the administration (day 30). Consequently, initial serum γGTP level at day 0 was 129 IU/l, while that of day 30 decreased to 69 IU/l which is within the normal range.

SMILES	layer of macrophage-lipid complex on the arterial endothelium (FIGS. 1A-1C) ([1]; 1 mg/kg Lovastatin, 0.1% naringin, control: thick layer)	inhibition of accumulation of macrophage-lipid complex on the arterial endothelium (conclusion) [1]	area of macrophage-lipid complex accumulated on the arterial endothelium, compared to control group ([1]; 1 mg/kg Lovastatin)	M-L (macrophage-lipid) complex area ([1]; 1 mg/kg Lovastatin)	serum GOT level lower than control group [2]	serum GPT level lower than control group [2]	occurrence of fatty liver (hepatic cells; 1% cholesterol diet plus 0.1% naringin)	microscopic features of the liver (FIGS. 2A-2C) (hepatic cells; 1% cholesterol diet, 1 mg/kg Lovastatin, 0.1% naringin)	decrease of serum GOT level, day 45 vs day 0 ([3]; day 45)	decrease of serum GPT level, day 45 vs day 0 ([3]; day 45)	decrease of serum γGTP level, day 45 vs day 0 ([3]; day 45)	decrease of serum GOT level, day 68 vs day 0 ([3]; day 68)	decrease of serum GPT level, day 68 vs day 0 ([3]; day 68)	serum γGTP level at day 30 [4]
C[C@@H]1O[C@@H](O[C@H]2[C@H](Oc3cc(O)c4c(c3)O[C@H](c3ccc(O)cc3)CC4=O)O[C@H](CO)[C@@H](O)[C@@H]2O)[C@H](O)[C@H](O)[C@H]1O [naringin, Naringin]	no or very thin layers of macrophage-lipid complex	strongly inhibit	decreased significantly	12%	about 30%	~10%	strongly inhibits the occurrence of fatty liver	normal and the deposition of fat is not observed	17%	15%	25%	17%	19%	69 IU/l
O=C1C[C@@H](c2ccc(O)cc2)Oc2cc(O)cc(O)c21 [naringenin]	–	strongly inhibit	decreased significantly	13%	–	–	–	–	–	–	–	–	–	–
